The values below are quoted from earlier work in US20050143363A1, “Method for subretinal administration of therapeutics including steroids; method for localizing pharmacodynamic action at the choroid of the retina; and related methods for treatment and/or prevention of retinal diseases” (InnoRx, Inc., priority 2002, published 2005).

The conditions of this data set: 72 hours after injection into the vitreous; animal studies.

For the molecule `C[C@]12C=CC(=O)C=C1CC[C@H]1[C@@H]3C[C@@H](O)[C@](O)(C(=O)CO)[C@@]3(C)C[C@H](O)[C@@]12F` [triamcinolone], the “share of the triamcinolone present in the vitreous that was associated with other tissues including the retina, pigment epithelium, and sclera” value is “less than 1%”.
